Measurements published in the supplement of paper PMC10307832.

How the values were obtained:
Experiment in all cases: relative viability (nuclei count vs DMSO), 5 days (fraction); higher = more cells survive
Dabrafenib + Bortezomib = compound: CC(C)(C)c1nc(-c2cccc(NS(=O)(=O)c3c(F)cccc3F)c2F)c(-c2ccnc(N)n2)s1 [Dabrafenib] + CC(C)C[C@H](NC(=O)[C@H](Cc1ccccc1)NC(=O)c1cnccn1)B(O)O [Bortezomib] (partner 0.002 µM)
Outline: (§1)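 Each reported value is a median over duplicate plates. It expresses relative viability: treated-well nuclei count divided by vehicle-well nuclei count. Lung cancer cell lines in 1536-well plates were dosed by pin tool a day after seeding, alone with one drug or with a fixed anchor-drug dose plus five library-drug doses (not always all listed) in √10 steps, and nuclei were counted after 5 days.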

Dabrafenib + Lapatinib = compound: CC(C)(C)c1nc(-c2cccc(NS(=O)(=O)c3c(F)cccc3F)c2F)c(-c2ccnc(N)n2)s1 [Dabrafenib] + CS(=O)(=O)CCNCc1ccc(-c2ccc3ncnc(Nc4ccc(OCc5cccc(F)c5)c(Cl)c4)c3c2)o1 [Lapatinib] (partner 2 µM)
Outline: as §1

Dabrafenib + Tozasertib = compound: CC(C)(C)c1nc(-c2cccc(NS(=O)(=O)c3c(F)cccc3F)c2F)c(-c2ccnc(N)n2)s1 [Dabrafenib] + Cc1cc(Nc2cc(N3CCN(C)CC3)nc(Sc3ccc(NC(=O)C4CC4)cc3)n2)n[nH]1 [Tozasertib] (partner 0.1 µM)
Outline: as §1

Dabrafenib + Olaparib = compound: CC(C)(C)c1nc(-c2cccc(NS(=O)(=O)c3c(F)cccc3F)c2F)c(-c2ccnc(N)n2)s1 [Dabrafenib] + O=C(c1cc(Cc2n[nH]c(=O)c3ccccc23)ccc1F)N1CCN(C(=O)C2CC2)CC1 [Olaparib] (partner 8 µM)
Outline: as §1

Row | Cell Line | relative viability (Dabrafenib + Bortezomib; first compound 0.009487 µM) | relative viability (Dabrafenib + Bortezomib; first compound 0.03 µM) | relative viability (Dabrafenib + Bortezomib; first compound 0.09487 µM) | relative viability (Dabrafenib + Bortezomib; first compound 0.3 µM) | relative viability (Dabrafenib + Lapatinib; first compound 0.009487 µM) | relative viability (Dabrafenib + Lapatinib; first compound 0.03 µM) | relative viability (Dabrafenib + Lapatinib; first compound 0.09487 µM) | relative viability (Dabrafenib + Lapatinib; first compound 0.3 µM) | relative viability (Dabrafenib + Tozasertib; first compound 0.009487 µM) | relative viability (Dabrafenib + Tozasertib; first compound 0.03 µM) | relative viability (Dabrafenib + Tozasertib; first compound 0.09487 µM) | relative viability (Dabrafenib + Tozasertib; first compound 0.3 µM) | relative viability (Dabrafenib + Olaparib; first compound 0.009487 µM) | relative viability (Dabrafenib + Olaparib; first compound 0.03 µM) | relative viability (Dabrafenib + Olaparib; first compound 0.09487 µM) | relative viability (Dabrafenib + Olaparib; first compound 0.3 µM) | relative viability (Dabrafenib + Tozasertib; first compound 0.003 µM) | relative viability (Dabrafenib + Olaparib; first compound 0.003 µM) | relative viability (Dabrafenib + Bortezomib; first compound 0.003 µM) | relative viability (Dabrafenib + Lapatinib; first compound 0.003 µM)
1 | HCC-78 | 0.655 | 0.543 | 0.4 | 0.513 | 0.697 | 0.702 | 0.754 | 0.838 | 0.485 | 0.42 | 0.387 | 0.54 | 0.847 | 0.733 | 0.452 | 0.915 |  |  |  | 
2 | HCC-366 | 1.05 | 0.794 | 0.945 | 1.08 | 1.08 | 0.776 | 1.05 | 1.2 | 0.187 | 0.0643 | 0.104 | 0.0995 | 0.337 | 0.271 | 0.329 | 0.39 | 0.088 | 0.381 |  | 
3 | HCC-827 | 1.03 | 1.06 |  | 0.996 | 0.228 | 0.185 | 0.185 | 0.186 | 0.457 | 0.383 |  | 0.377 | 0.79 | 0.62 |  | 0.671 | 0.426 | 0.65 | 0.778 | 0.133
4 | HOP-62 | 0.809 | 0.861 | 0.235 | 0.706 | 1.07 | 0.822 | 0.889 | 0.784 | 0.39 | 0.331 | 0.362 | 0.399 | 0.297 | 0.388 |  | 0.386 | 0.422 |  |  | 
5 | LC-2-ad | 1.03 | 0.969 | 0.918 | 1.09 | 1.01 | 0.976 | 0.886 | 0.925 | 0.453 | 0.422 | 0.447 | 0.429 | 0.668 | 0.709 | 0.647 | 0.698 |  | 0.69 | 1.04 | 0.862
6 | LCLC-97TM1 | 0.643 | 0.782 | 0.162 | 0.469 | 1.19 | 0.994 |  | 0.916 | 0.209 | 0.287 | 0.249 | 0.186 | 0.317 | 0.472 | 0.262 | 0.35 | 0.218 |  |  | 
7 | LOU-NH91 | 0.457 | 0.524 | 0.456 | 0.497 | 0.789 | 0.683 | 0.772 | 0.802 | 0.78 | 0.679 | 0.698 | 0.761 | 0.923 | 0.918 | 0.889 | 0.969 | 0.704 |  |  | 
8 | LU99A | 0.99 | 1.15 | 1.1 | 0.887 | 0.971 | 0.994 | 0.852 | 0.751 | 0.287 | 0.255 | 0.277 | 0.306 | 0.278 | 0.257 | 0.236 | 0.272 | 0.258 | 0.296 | 1.16 | 0.974
9 | LXF-289 | 1.01 | 1.18 | 0.969 | 1.13 | 0.907 | 1.11 | 1 | 1.09 | 0.178 | 0.116 | 0.203 | 0.187 | 1.12 | 1.07 | 0.892 | 1.07 | 0.192 | 1.1 | 0.949 | 0.867
10 | NCI-H23 | 0.95 | 0.861 | 0.643 | 1.07 | 1.21 | 1.08 | 0.712 | 1.02 | 0.431 | 0.344 | 0.337 | 0.375 | 0.312 | 0.3 | 0.292 | 0.329 |  |  |  | 
11 | NCI-H322M | 1.26 |  | 1.3 | 1.34 | 0.657 |  | 0.584 | 0.559 | 0.49 | 0.373 | 0.446 | 0.436 | 0.8 |  | 0.745 | 0.736 |  |  |  | 
12 | NCI-H460 | 1.06 | 1.14 | 1.05 | 1.08 | 1.03 | 1.05 | 0.925 | 0.83 | 0.482 | 0.436 | 0.374 | 0.375 | 0.398 | 0.397 | 0.362 | 0.385 | 0.0459 | 0.493 | 1.28 | 1.04
13 | NCI-H520 | 0.59 | 0.476 | 0.544 | 0.731 | 0.867 | 0.642 | 0.816 | 0.727 | 0.486 |  | 0.417 | 0.408 | 0.317 | 0.305 | 0.271 | 0.354 | 0.431 | 0.312 | 0.584 | 0.856
14 | NCI-H596 | 1 | 0.818 | 0.895 | 0.986 | 1.11 | 0.814 | 1.04 | 1.05 | 0.781 | 0.826 | 0.821 | 0.977 | 0.68 | 0.675 | 0.651 | 0.752 |  |  | 0.6 | 0.994
15 | NCI-H647 | 0.778 | 0.789 | 1.19 | 1.03 | 1.24 | 0.812 | 1.01 | 0.893 | 0.292 | 0.27 | 0.298 | 0.434 | 0.558 | 0.449 | 0.557 | 0.607 | 0.388 | 0.661 |  | 
16 | NCI-H650 | 0.865 | 0.645 | 0.494 | 0.453 | 1.1 | 0.623 | 0.514 | 0.435 | 0.667 | 0.738 | 0.502 | 0.38 | 0.381 | 0.341 | 0.189 | 0.287 |  |  |  | 
17 | NCI-H661 | 0.868 | 0.437 | 0.719 | 0.789 | 0.486 | 0.364 | 0.458 | 0.455 | 0.364 | 0.372 | 0.38 | 0.352 | 0.685 | 0.746 | 0.75 | 0.773 | 0.344 | 0.739 | 0.647 | 0.471
18 | NCI-H727 | 0.848 | 0.882 | 0.795 | 0.873 | 0.811 | 0.658 | 0.755 | 0.817 | 0.754 | 0.654 | 0.667 | 0.793 | 0.656 |  | 0.612 | 0.796 |  | 0.554 |  | 
